This note sets out measurements from US11254781B2, “Urethane-crosslinked biodegradable elastomers” (Massachusetts Institute of Technology, priority 2011, dated 2022).

In the series the test system is adult male Wistar rats. Particulars: rat, in vivo.

Protocol: In vivo cardiac biocompatibility of PGSU-SF films All surgical procedures were approved by the IACUC of the Children's Hospital Boston and performed according to the NIH Guidelines for the Care and Use of Laboratory Animals Briefly, adult male Wistar rats (Charles River Laboratories, Wilmington, Mass.) were anesthetized with an intraperitoneal injection of ketamine (100 mg/kg) and xylazine (10 mg/kg), followed by intratracheal intubation. Rats were ventilated with a small animal respirator (Harvard Apparatus, Holliston, Mass.), and anesthesia was maintained with 0.5 to 1.0% isofluorane and 100% oxygen. The heart was accessed through an anterior right-sided thoracotomy, followed by the removal of the pericardial sac. A 1 mm thick and 7 mm in diameter porous PGSU-SF 1:0.3 patch was sutured on the left ventricle (LV) epicardial surface of the rat heart using three 7-0 polypropylene monofilament stitches. The chest wall was closed in layers, and the thoracic cavity evacuated with a 18-gauge intravenous catheter Animals were sacrificed at 1 and 4 weeks (n=4 per time point) after the surgical procedure with CO2, followed by immediate excision of the heart. Tissue sections transverse to the patch and heart surface were stained with Hematoxylin and Eosin stain (H&E). […]

For “poly (glycerol sebacate urethane) [PGSU-SF 1:0.3]”, the “cardiac function (echocardiography)” value is reported as “No changes” and the chest adhesions entry is recorded as “Moderate”.
